Measurements from US10064839B2, “Methods of treating liver diseases” (Zafgen, Inc., priority 2012, dated 2018).

Columns and labels:
recombinant human MetAP2 = target: T1, recombinant human MetAP2 (Homo sapiens, UniProt P50579); test: Recombinant human MetAP2 inhibition assay (MAS substrate, Amplex red fluorescence); type: biochemical; settings: human recombinant MetAP2 manganese enzyme, 0.75 mM MAS substrate, 30 minutes at 25° C., pH 7.5; read-out: Activity (MetAP2 IC50 class)
T1 construct: made in house; host or cells: Sf9 insect cells
Experimental: Compounds are tested for their capacity to inhibit recombinant human MetAP2 activity using the following assay.
Human recombinant MetAP2 expressed in Sf9 cells followed by affinity purification and EDTA treatment to remove endogenous active site cation was dialysed against MnCl2 to produce the manganese enzyme used in the assay. The assay was carried out for 30 minutes at 25° C. in 50 mM HEPES buffer containing 100 mM NaCl, pH 7.5 the presence of 0.75 mM Methionine-Alanine-Serine (MAS) substrate and 50 µg/ml amino acid oxidase using a dilution of purified MetAP2 giving >3-fold signal: noise. Cleavage of the substrate by MetAP2 and oxidation of free methionine by amino acid oxidase was detected and quantified using fluorescence generated by Amplex red (10-acetyl-3,7-dihydroxyphenoxazine) in combination with horseradish peroxidase which detects H2O2 released during the oxidation step. The fluorescent signal was detected using a multiwell fluorimeter. Compounds were diluted in DMSO prior to addition to assay buffer, the final DMSO concentration in the assay being 1%.
IC50 values are calculated using the XLfit software package (version 2.0.5).

[1] = test system: diet induced obese mice (C57BL6); test: Diet induced obese mice, 10 days oral 30 mg/kg: body weight and serum cholesterol; type: in vivo, mouse; settings: DIO C57BL6 mice, 30 mg/kg oral gavage; for Cholesterol Change: serum
Experimental: Compounds were tested in diet induced obese mice (C57BL6) that were on a 65% high fat diet for 8-10 weeks. Mice were dosed for 10 days by oral gavage with 30 mg/kg of the compounds listed. Their body weights were recorded along with serum chemistries including cholesterol.

NASH mice = test: Non-alcoholic steatohepatitis (STZ + high fat diet) mouse model; type: in vivo
Experimental: NASH was induced in 48 male mice by a single subcutaneous injection of 200 μg streptozotocin (STZ; Sigma-Aldrich) in the back of mice 2 days after birth, and by feeding with high fat diet (HFD; 57 kcal % fat) after 4 weeks of age. At 5 weeks of age, the NASH mice were randomized into 6 groups of 8 mice based on body weight. Eight male littermates, fed with normal diet (without STZ treatment, were used for the Normal group. Vehicle, Compound A and Telmisartan were administered by the oral route in a volume of 10 mL/kg body weight.
Compound A was administered twice daily at doses of 1, 3 or 10 mg/kg body weight (i.e., 2, 6 or 20 mg/kg/day) and once daily at dose of 30 mg/kg body weight. Telmisartan was administered once daily at a dose of 10 mg/kg body weight.
C57BL/6 mice (15-day pregnant female) were obtained from Charles River Laboratories Japan (Japan). The animals were maintained in a SPF facility under controlled conditions of temperature (23±2° C.), humidity (45±10%), lighting (12-hour artificial light and dark cycles; light from 8:00 to 20:00) and air exchange. A high pressure (20±4 Pa) was maintained in the experimental room to prevent contamination of the facility.
Mice were fasted for 4 hours before blood was collected at the time of sacrifice. HbA1c levels were quantified in whole blood samples by DCA Vantage Analyzer (Siemens Healthcare Diagnostics, USA). For plasma biochemistry, blood was collected in polypropylene tubes with anticoagulant (Novo-Heparin;) and centrifuged at 1,000×g for 15 minutes at 4° C. The supernatant was collected and stored at −80° C. until use. Plasma levels of glucose, ALT, TG and total cholesterol were measured by FUJI DRI-CHEM 7000 (Fujifilm, Japan). Plasma insulin concentration was quantified by the Ultra Sensitive Mouse Insulin ELISA Kit.
Liver total lipid-extracts were obtained by Folch's method (Folch J. et al., J. Biol. Chem. 1957; 226: 497). Liver samples were homogenized in chloroform-methanol (2:1, v/v) and incubated overnight at room temperature. After washing with chloroform-methanol-water (8:4:3, v/v/v), the extracts were evaporated to dryness, and dissolved in isopropanol. Liver TG levels were measured by Triglyceride E-test (Wako Pure Chemical Industries). Extracts were diluted 2-fold in isopropanol when the TG content exceeded the detection limit.
For HE staining, sections were cut from paraffin blocks of liver tissue prefixed in Bouin's solution and stained with Lillie-Mayer's Hematoxylin (Muto Pure Chemicals, Japan) and eosin solution (Wako Pure Chemical Industries). NAFLD Activity score (NAS) was calculated according to the criteria of Kleiner (Kleiner D E et al., Hepatology, 2005; 41:1313). To visualize collagen deposition, Bouin's fixed liver sections were stained using picro-Sirius red solution (Waldeck, Germany). To visualize macro- and microvesicular fat, cryosections were cut from frozen liver tissues, prefixed in 10% neutral buffered formalin, embedded in Tissue-Tek O.C.T. compound (Sakura Finetek Japan, Japan), and stained with Oil Red O (Sigma-Aldrich). For immunohistochemistry, sections were cut from frozen liver tissues embedded in Tissue-Tek O.C.T. compound and fixed in acetone. Endogenous peroxidase activity was blocked using 0.03% H2O2 for 5 minutes, followed by incubation with Block Ace (Dainippon Sumitomo Pharma, Japan) for 10 minutes. The sections were incubated with a 200-fold dilution of anti-F4/80 antibody (BMA Biomedicals, Switzerland) over night at 4° C. After incubation with secondary antibody (HRP-Goat anti-rat antibody, Invitrogen, USA), enzyme-substrate reactions were performed using 3, 3′-diaminobenzidine/H2O2 solution (Nichirei, Japan). […]

T1 sequence (P50579 whole entry): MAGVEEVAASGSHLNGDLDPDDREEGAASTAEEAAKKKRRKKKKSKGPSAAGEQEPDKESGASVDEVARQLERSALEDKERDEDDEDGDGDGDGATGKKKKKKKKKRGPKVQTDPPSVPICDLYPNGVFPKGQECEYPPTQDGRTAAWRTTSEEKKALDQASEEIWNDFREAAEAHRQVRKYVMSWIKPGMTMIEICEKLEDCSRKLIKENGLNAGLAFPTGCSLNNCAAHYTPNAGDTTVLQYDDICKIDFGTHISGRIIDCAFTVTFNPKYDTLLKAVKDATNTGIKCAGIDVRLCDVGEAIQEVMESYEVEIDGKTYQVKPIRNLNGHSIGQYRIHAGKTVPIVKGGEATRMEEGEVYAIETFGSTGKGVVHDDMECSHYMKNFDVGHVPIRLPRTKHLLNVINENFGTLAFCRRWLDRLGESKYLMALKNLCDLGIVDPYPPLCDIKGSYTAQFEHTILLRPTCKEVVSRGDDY

| IC50 (recombinant human MetAP2) [µM] | Compound | other results |
| --- | --- | --- |
| 0.05 to 0.5 | CCN1CC[C@@H](Cc2cc(F)ccc2S(=O)(=O)Nc2ccc3c(c2C(=O)O)OCC2CC32)C1 (single isomer, unassigned) [listing 1 of 2 here] | – |
| < 0.05 | O=C(O)c1c(NS(=O)(=O)c2ccc(F)cc2/C=C\CN2CC(O)C2)ccc2c1OC[C@@H]1C[C@H]21 (racemic) [(1aRS,7bSR)-5-{2[(Z)-3-(3-Hydroxyazetidin-1-yl)prop-1-enyl]-4-fluorobenzene-sulfonylamino}-1,1a,2,7b-tetrahydrocyclopropa[c]chromene-4-carboxylic acid] | – |
| 0.05 to 0.5 | O=C(O)c1c(NS(=O)(=O)c2ccc(F)cc2/C=C\CN2CCCC2)ccc2c1OCC1CC21 (single isomer, unassigned) [listing 1 of 2 here] | – |
| 0.05 to 0.5 | (1aRS,7bSR)-5-{2[(Z)-3-((S)-3-hydroxypyrrolidin-1-yl)aminoprop-1-enyl]-4-fluorobenzenesulfonylamino}-1,1a,2,7b-tetrahydrocyclopropa[c]chromene-4-carboxylic acid | – |
| 0.05 to 0.5 | CCN1CC[C@@H](NC(=O)Cc2cc(F)ccc2S(=O)(=O)Nc2ccc3c(c2C(=O)O)OC[C@@H]2C[C@H]32)C1 (mixture of isomers) | – |
| – | CCN(CC)C/C=C\c1cc(F)ccc1S(=O)(=O)Nc1ccc2c(c1C(=O)O)OC[C@H]1CCCN21 | Body Weight Change [1]: −2.0%; Cholesterol Change [1]: −24% |
| – | CCN(CC)C/C=C\c1cc(F)ccc1S(=O)(=O)Nc1ccc2c(ncc3occc32)c1C(=O)O | Body Weight Change [1]: −16%; Cholesterol Change [1]: No change |
| 0.05 to 0.5 | CCNC/C=C\c1cc(F)ccc1S(=O)(=O)Nc1ccc2c(c1C(=O)O)OCC1CC21 (single isomer, unassigned) [listing 1 of 2 here] | – |
| < 0.05 | CCN(CC)C/C=C\c1ccccc1S(=O)(=O)Nc1ccc2c(c1C(=O)O)OCC1CC21 (single isomer, unassigned) [listing 1 of 2 here] | – |
| < 0.05 | CCN(CC)CC/C=C\c1cc(F)ccc1S(=O)(=O)Nc1ccc2c(c1C(=O)O)OC[C@@H]1C[C@H]21 (racemic) [(1aRS,7bSR)-5-[2((Z)-4-Diethylaminobut-1-enyl)-4-fluorobenzenesulfonyl-amino]-1,1a,2,7b-tetrahydrocyclopropa[c]chromene-4-carboxylic acid] | – |
| < 0.05 | CN(C)CCCCNc1ccccc1S(=O)(=O)Nc1ccc2c(c1C(=O)O)OCC1CC21 (single isomer, unassigned) | – |
| < 0.05 | CCN(CC)C/C=C\c1cc(F)ccc1S(=O)(=O)Nc1ccc2c(c1C(=O)O)OC[C@@H]1C[C@]21C (racemic) [(1aRS,7bSR)-5-[2-((Z)-3-Diethylaminoprop-1-enyl)-4-fluorobenzenesulfonylamino]-7b-methyl-1,1a,2,7b-tetrahydrocyclopropa[c]chromene-4-carboxylic acid] | – |
| 0.05 to 0.5 | CCN1CCC[C@H]1C(=O)N(C)Cc1cc(F)ccc1S(=O)(=O)Nc1ccc2c(c1C(=O)O)OC[C@@H]1C[C@H]21 (mixture of isomers) | – |
| 0.05 to 0.5 | CCN(CC)C/C=C/c1cc(F)ccc1S(=O)(=O)Nc1ccc2c(c1C(=O)O)OC[C@@H]1C[C@]21C (racemic) [(1aRS,7bSR)-5-[2-((E)-3-Diethylaminoprop-1-enyl)-4-fluorobenzenesulfonylamino]-7b-methyl-1,1a,2,7b-tetrahydrocyclopropa[c]chromene-4-carboxylic acid] | – |
| < 0.05 | CN(C)CCCNc1ccccc1S(=O)(=O)Nc1ccc2c(c1C(=O)O)OCC1CC21 (single isomer, unassigned) | – |
| 0.05 to 0.5 | CCN1CC(CNc2ccccc2S(=O)(=O)Nc2ccc3c(c2C(=O)O)OC[C@@H]2C[C@H]32)C1 (racemic) [(1aRS,7bSR)-5-{2-[(1-Ethylazetidin-3-ylmethyl)amino]benzene-sulfonylamino}-1,1a,2,7b-tetrahydrocyclopropa[c]chromene-4-carboxylic acid] | – |
| 0.05 to 0.5 | O=C(O)c1c(NS(=O)(=O)c2ccc(F)cc2/C=C\CN2CCCC2)ccc2c1OCC1CC21 (single isomer, unassigned) [listing 2 of 2 here] | – |
| < 0.05 | CCN1CC[C@@H](Cc2cc(F)ccc2S(=O)(=O)Nc2ccc3c(c2C(=O)O)OCC2CC32)C1 (single isomer, unassigned) [listing 2 of 2 here] | – |
| 0.05 to 0.5 | CCN1CC[C@H](N(C)C(=O)Cc2cc(F)ccc2S(=O)(=O)Nc2ccc3c(c2C(=O)O)OC[C@@H]2C[C@H]32)C1 (mixture of isomers) | – |
| 0.05 to 0.5 | CCN1CC[C@@H](N(C)C(=O)Cc2cc(F)ccc2S(=O)(=O)Nc2ccc3c(c2C(=O)O)OC[C@@H]2C[C@H]32)C1 (mixture of isomers) | – |
| 0.05 to 0.5 | CCN(CC)C/C=C\c1ccccc1S(=O)(=O)Nc1ccc2c(c1C(=O)O)OCC1CC21 (single isomer, unassigned) [listing 2 of 2 here] | – |
| – | CCN(CC)C/C=C\c1cc(F)ccc1S(=O)(=O)Nc1ccc2c(c1C(=O)O)OCCc1occc1-2 | Body Weight Change [1]: −2.1%; Cholesterol Change [1]: No change |
| < 0.05 | O=C(O)c1c(NS(=O)(=O)c2ccccc2)ccc2c3c(cnc12)OCC3 | – |
| < 0.05 | CCN(CC)C/C=C\c1cc(F)ccc1S(=O)(=O)Nc1ccc2c(c1C(=O)O)OC[C@@H]1[C@H]2C1(F)F (racemic) [(1aRS,7bSR)-5-[2-((Z)-3-Diethylaminoprop-1-enyl)-4-fluorobenzene-sulfonylamino]-1,1-difluoro-1,1a,2,7b-tetrahydrocyclopropa[c]chromene-4-carboxylic acid] | – |
| < 0.05 | CCNC/C=C\c1cc(F)ccc1S(=O)(=O)Nc1ccc2c(c1C(=O)O)OCC1CC21 (single isomer, unassigned) [listing 2 of 2 here] | – |
| 0.05 to 0.5 | CC(C)NC/C=C\c1cc(F)ccc1S(=O)(=O)Nc1ccc2c(c1C(=O)O)OC[C@@H]1C[C@H]21 (racemic) [(1aRS,7bSR)-5-{2[(Z)-3-(propan-2-yl)aminoprop-1-enyl]-4-fluorobenzene-sulfonylamino}-1,1a,2,7b-tetrahydrocyclopropa[c]chromene-4-carboxylic acid] | – |
| – | CCCc1nc2c(C)cc(-c3nc4ccccc4n3C)cc2n1Cc1ccc(-c2ccccc2C(=O)O)cc1 [Telmisartan, reference compound] | Mean body weight at the day before sacrifice (NASH mice; Telmisartan 10 mg/kg once daily oral, 5 to 9 weeks of age, Vehicle 18.8±1.0 g): 15.6 ± 1.8 g; Fibrosis area (Sirius red-positive area) (NASH mice; Telmisartan 10 mg/kg once daily, Vehicle 1.07±0.18%): 0.42±0.08%; Inflammation area (F4/80-positive area) (NASH mice; Telmisartan 10 mg/kg once daily, Vehicle 3.57±0.88%): 3.84±0.86%; NAFLD Activity score (NAS) (NASH mice; Telmisartan 10 mg/kg once daily, Vehicle 5.4±0.9): 2.3±0.7; Fat deposition area (oil red-positive area) (NASH mice; Telmisartan 10 mg/kg once daily, Vehicle 23.57±6.52%): 17.29±7.66%; Liver TG content (NASH mice; Telmisartan 10 mg/kg once daily, Vehicle 67.3±29.0): 30.7±11.4 mg/g liver |

| Compound | IC50 (recombinant human MetAP2) [µM] | other results |
| --- | --- | --- |
| (1aRS,7bSR)-5-{2[(Z)-3-((R)-3-Hydroxypyrrolidin-1-yl)aminoprop-1-enyl]-4-fluorobenzene-sulfonylamino}-1,1a,2,7b-tetrahydro-cyclopropa[c]chromene-4-carboxylic acid | 0.05 to 0.5 | – |
